Results on 13 compounds are retold here after patent US6638973B2, “Taxane formulations” (FSU Research Foundation, Inc., priority 2000, dated 2003).

SMILES strings stand for the structures. A value given as a limit tells only on which side of the number the result lay.

The test system of the first test is HCT116 cells. The experiment in a line: In vitro cytotoxicity measured by the cell colony formation assay. Conditions: HCT116 cells, 72 h drug incubation, colonies counted after 7 days; ID50 = drug concentration producing 50% inhibition of colony formation; read-out: IN VITRO ID 50 (nm) HCT116. The test is classed as cell-based. The procedure, abridged:
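Colony-forming survival was scored 7 days after a 72 h, 37 °C compound exposure followed by washout into fresh medium.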
On to `CC(=O)O[C@@]12CO[C@@H]1C[C@H](OC(=O)Nc1ccc(F)c(F)c1)[C@@]1(C)C(=O)[C@H](O)C3=C(C)[C@@H](OC(=O)[C@H](O)[C@@H](NC(=O)OC(C)(C)C)c4ccco4)C[C@@](O)([C@@H](OC(=O)c4ccccc4)C12)C3(C)C` (stereo partly shown) [Compound 5415], for which the IC50 is under 1 nM.

Staying with this test, now noted: HCT116 cells, 72 h incubation with drug, colonies counted after 7 days; ID50 = drug concentration producing 50% inhibition of colony formation; read-out: IN VITRO ID 50 (nm) HCT116.
As to `COC(=O)O[C@H]1C[C@H]2OC[C@@]2(OC(C)=O)C2[C@H](OC(=O)c3ccccc3)[C@]3(O)C[C@H](OC(=O)[C@H](O)[C@@H](NC(=O)OCC(C)C)c4ccoc4)C(C)=C([C@@H](O)C(=O)[C@@]21C)C3(C)C` (stereo partly shown) [Compound 4584], the IC50 was under 10 nM.

The same test, now with this note: HCT116 cells, colony formation, 72 h incubation with drug, colonies counted after 7 days; ID50 = drug concentration producing 50% inhibition of colony formation; read-out: IN VITRO ID 50 (nm) HCT116.
For the compound `CCNC(=O)O[C@H]1C(=O)[C@@]2(C)C([C@H](OC(=O)c3ccccc3)[C@]3(O)C[C@H](OC(=O)[C@H](O)[C@@H](NC(=O)OC(C)(C)C)c4ccccn4)C(C)=C1C3(C)C)[C@]1(OC(C)=O)CO[C@@H]1C[C@@H]2O` (stereo partly shown) [Compound 2600], the IC50 is under 1 nM.

Staying with this test, now noted: HCT116 colony formation; 72 h drug incubation, colonies counted after 7 days; Example 10, C-10 ester/C-7 hydroxy taxanes; read-out: IN VITRO ID 50 (nm) HCT116.
For the compound `CC(=O)O[C@@]12CO[C@@H]1C[C@H](O)[C@@]1(C)C(=O)[C@H](OC(=O)C3CC3)C3=C(C)[C@@H](OC(=O)[C@H](O)[C@H](C=C(C)C)NC(=O)OC(C)(C)C)C[C@@](O)([C@@H](OC(=O)c4ccccc4)C12)C3(C)C` (stereo partly shown) [Compound 0838], the IC50 was under 1 nM.
Still for that read-out and setting: in the case of `CC(=O)OC12COC1CC(O)C1(C)C(=O)C(OC(=O)c3ccco3)C3=C(C)C(OC(=O)C(O)C(NC(=O)OC(C)(C)C)C(C)C)CC(O)(C(OC(=O)c4ccccc4)C21)C3(C)C` (stereo not shown) [Compound 2181] it was under 10 nM.
The same measure, in the same setting: with `CCCC(=O)N[C@@H](c1ccco1)[C@@H](O)C(=O)O[C@H]1C[C@@]2(O)[C@@H](OC(=O)c3ccccc3)C3[C@](C)(C(=O)[C@H](OC(=O)CC)C(=C1C)C2(C)C)[C@@H](O)C[C@H]1OC[C@@]31OC(C)=O` (stereo partly shown) [Compound 3219] the figure was under 1 nM.
With `CC(=O)O[C@@]12CO[C@@H]1C[C@H](O)[C@@]1(C)C(=O)[C@H](OC(=O)C3CC3)C3=C(C)[C@@H](OC(=O)[C@H](O)[C@@H](NC(=O)OCC(C)C)c4cccs4)C[C@@](O)([C@@H](OC(=O)c4ccccc4)C12)C3(C)C` (stereo partly shown) [Compound 3129], the IC50 is under 10 nM.
On the same count and under the same terms, with `CC(=O)O[C@@]12CO[C@@H]1C[C@H](O)[C@@]1(C)C(=O)[C@H](OC(=O)C=C(C)C)C3=C(C)[C@@H](OC(=O)[C@H](O)[C@@H](NC(=O)OC(C)(C)C)c4ccco4)C[C@@](O)([C@@H](OC(=O)c4ccccc4)C12)C3(C)C` (stereo partly shown) [Compound 2488] the figure was under 1 nM; with `C/C=C/C(=O)O[C@H]1C(=O)[C@@]2(C)C([C@H](OC(=O)c3ccccc3)[C@]3(O)C[C@H](OC(=O)[C@H](O)[C@@H](NC(=O)OC(C)(C)C)c4cccnc4)C(C)=C1C3(C)C)[C@]1(OC(C)=O)CO[C@@H]1C[C@@H]2O` (stereo partly shown) [Compound 2353], under 10 nM.
Take `CCCC(=O)N[C@@H](c1ccco1)[C@@H](O)C(=O)O[C@H]1C[C@@]2(O)[C@@H](OC(=O)c3ccccc3)C3[C@](C)(C(=O)[C@H](OC(=O)CCC)C(=C1C)C2(C)C)[C@@H](O)C[C@H]1OC[C@@]31OC(C)=O` (stereo partly shown) [Compound 3222]: the IC50 is under 1 nM.
With `CC(=O)O[C@@]12CO[C@@H]1C[C@H](O)[C@@]1(C)C(=O)[C@H](OC(=O)C=C(C)C)C3=C(C)[C@@H](OC(=O)[C@H](O)[C@H](C=C(C)C)NC(=O)OC(C)(C)C)C[C@@](O)([C@@H](OC(=O)c4ccccc4)C12)C3(C)C` (stereo partly shown) [Compound 2455], the IC50 is under 10 nM.
As to `CC(=O)O[C@@]12CO[C@@H]1C[C@H](O)[C@@]1(C)C(=O)[C@H](OC(=O)C3CC3)C3=C(C)[C@@H](OC(=O)[C@H](O)[C@@H](NC(=O)c4ccccc4)c4ccccn4)C[C@@](O)([C@@H](OC(=O)c4ccccc4)C12)C3(C)C` (stereo partly shown) [Compound 2844], the IC50 was under 10 nM.
Same read-out and setting: with `CCC(=O)O[C@H]1C(=O)[C@@]2(C)C([C@H](OC(=O)c3ccccc3)[C@]3(O)C[C@H](OC(=O)[C@H](O)[C@@H](NC(=O)c4cccs4)c4ccco4)C(C)=C1C3(C)C)[C@]1(OC(C)=O)CO[C@@H]1C[C@@H]2O` (stereo partly shown) [Compound 3644] the figure was under 1 nM.
